In one assay the test system is T cells of RA patients. The note with it: cited from earlier work.
A further assay has as its system BLCL. Description: FACS control: peptide binding to BLCL. Details: species or system human. The note with it: data not shown. On the procedure:
Briefly, 10^6 BLCL were incubated with 40 μg peptide in 500 μl DMEM/HAM's F12 or blank medium for 4 h at 37° C. After this incubation, the cells were washed with PBS, 2% FCS, 0.02% sodiumazide. Approximately 2×10^5 cells were incubated for 1 h, 4° C. with 130 μl MAb-containing hybridoma supernatant plus 20 μl PBS, 20% FCS, 0.02% sodiumazide. After washing the cells twice with PBS, 2% FCS, 0.02% sodiumazide, they were incubated for 1 h, 4° C. with 50 μl PBS, 20% FCS, 0.02% sodiumazide plus 10 μl Goat anti-mouseIg/FITC (Beckton & Dickinson). Subsequently, the cells were washed three times with PBS, 2% FCS, 0.02% sodiumazide and finally resuspended in 400 μl PBS, 2% p-formaldehyde. As a control for peptide binding, cells were incubated with biotinylated HC gp39263-275 and stained with streptavidin/PE (Beckton & Dickinson). As a control for HLA-DR expression, staining was performed with anti-HLA/DR, L243 (purified Ig from hybridoma ATCC HB 55). Stained cells were analyzed with the FACScan™ (Beckton & Dickinson). In all cases, forward and side scatter analysis was applied to eliminate dead cells and debris from further analysis.
These homozygous BLCL were loaded with HC gp-39263-275 and subsequently stained with ORG38948 12A. In a series of experiments, ORG38948 12A stains HC gp-39^263-275 in the context of both DRB1*0401 and DRB1*0407 (Table V). […]

The conditions of assay [1]: DBA/1 mice, semi-therapeutic regime; cited from earlier work.
For assay [2] the following is noted: intranasal administration prior to immunization; cited from earlier work.
For assay [3] the following is noted: BALB/c mice; cited from earlier work.

The source of these data is patent publication US20040137514A1, “Use of antibodies against specific mhc-peptide complexes” (priority 2000, published 2004).

As for “326-338: peptide 326-338 of HC gp-39 (VGYDDQESVKSKV; HC gp-39 AA 326-338; listed as Homo sapiens)”, in the assay with T cells of RA patients, the “recognition by T cells of RA patients” value is reported as “recognized”.

RSFTLASSETG: the “binding of peptide to the BLCL” value in the assay with BLCL was “binds to the BLCL”.

With “human cartilage glycoprotein-39 [HC gp-39]”, the “incidence and severity of collagen type II induced arthritis” value in assay [1] is “could reduce”. In assay [2], the DTH responses result is “complete abrogation of DTH responses” and the disease development result was “protection from or delayed onset of the disease”. In addition, the outcome of immunisation in assay [3] is recorded as “development of a chronic, relapsing arthritis”.
